Laboratory results taken from PMC11674118, “New High-Affinity Peptide Ligands for Kv1.2 Channel: Selective Blockers and Fluorescent Probes” (Cells, 2024).
Like-named read-outs stand apart in the source and are kept apart here. *1 amine or outer side, *2 acyl side, *3 side chain or, on linkers, in order; H or OH if unused. Where a SMILES comes first, the peptide text is derived from it. Bridges are numbered along the chain shown (N, C = ends). [ ]: non-standard residue; d: D form. The star is where a group is joined. X1 = N=c1ccc2c(-c3ccccc3C(=O)*)c3ccc(N)c(S(=O)(=O)O)c3oc-2c1S(=O)(=O)O; NMeGABA = CN(CCCC(=O)[*:2])[*:1]

Tests used:
[1] = molecular target: T1, Kv1.3 channel (K-Kv1.3) (Homo sapiens, UniProt P22001); conditions: cited from earlier work
T1 construct: expressed in transfected cells; host or cells: Neuro2a cells; tracer A-HgTx bought from Smartox Biotechnology
T1 sequence (P22001 whole entry): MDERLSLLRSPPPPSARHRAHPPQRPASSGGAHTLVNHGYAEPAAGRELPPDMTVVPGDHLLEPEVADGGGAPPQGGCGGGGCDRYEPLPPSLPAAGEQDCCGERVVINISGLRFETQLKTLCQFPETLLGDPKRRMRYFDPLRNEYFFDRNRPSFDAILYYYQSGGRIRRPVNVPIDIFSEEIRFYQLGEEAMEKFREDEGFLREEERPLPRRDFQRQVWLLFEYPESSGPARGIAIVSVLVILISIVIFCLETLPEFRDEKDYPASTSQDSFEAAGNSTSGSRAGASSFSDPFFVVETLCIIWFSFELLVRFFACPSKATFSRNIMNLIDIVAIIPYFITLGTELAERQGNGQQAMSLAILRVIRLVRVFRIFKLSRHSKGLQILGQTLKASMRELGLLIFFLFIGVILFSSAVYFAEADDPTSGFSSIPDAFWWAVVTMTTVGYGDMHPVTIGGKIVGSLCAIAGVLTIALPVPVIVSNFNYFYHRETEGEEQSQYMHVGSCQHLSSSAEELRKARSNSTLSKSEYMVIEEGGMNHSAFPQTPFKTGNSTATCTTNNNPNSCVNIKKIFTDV
Procedure: (§1) Previously, labeling of HgTx1 with fluorophores Cy3, Cy5, Alexa 488, Alexa 546, Alexa 594, Alexa 660, and Alexa 680 was performed at the cysteine residue introduced instead of alanine 19 [23].

[2] = molecular target: Kv1.1 channel (K-Kv1.1); conditions: cited from earlier work
Procedure: as §1

[3] = molecular target: T2, human Kv1.2 channel, mKate2-Kv1.2(S371T) (K-Kv1.2) (Homo sapiens, UniProt P16389, S371T); assay: Binding of fluorescent ligands to K-Kv1.2 on living Neuro2a cells (confocal microscopy, Rav titration); conditions: concentration dependence of binding
T2 construct: expressed in transfected cells; host or cells: mouse neuroblastoma Neuro2a cells, transient transfection with pmKate2-KCNA2m1
T2 sequence (P16389 whole entry S371T): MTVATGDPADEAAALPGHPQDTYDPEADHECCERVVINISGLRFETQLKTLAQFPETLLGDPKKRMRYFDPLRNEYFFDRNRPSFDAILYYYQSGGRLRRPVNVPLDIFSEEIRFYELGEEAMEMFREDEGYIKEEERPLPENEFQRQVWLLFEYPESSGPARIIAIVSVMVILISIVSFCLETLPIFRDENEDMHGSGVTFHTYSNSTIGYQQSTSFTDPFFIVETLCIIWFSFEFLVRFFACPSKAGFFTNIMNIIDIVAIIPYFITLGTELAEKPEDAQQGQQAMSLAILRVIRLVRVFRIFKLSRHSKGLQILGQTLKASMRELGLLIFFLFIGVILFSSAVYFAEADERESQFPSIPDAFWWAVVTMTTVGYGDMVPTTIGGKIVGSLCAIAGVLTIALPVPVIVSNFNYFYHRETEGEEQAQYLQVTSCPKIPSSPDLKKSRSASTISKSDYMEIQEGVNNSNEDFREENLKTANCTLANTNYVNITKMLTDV
Procedure: (§2) Cellular organelles were stained as described earlier. To analyze the binding of Kv1.2 with fluorescent ligands, A-HgTx (0.06–2 nM) or HgTx-G (0.06–0.5 nM) was added to cells in a complete medium for 90–120 min. To analyze competitive binding, HgTx-G (0.5 nM) was added to cells together with the studied peptide (0.1–0.8 nM HgTx1; 0.05–0.8 nM MgTx; 5–20 nM ChTx; 50–400 nM AgTx2; 0.05–0.2 nM Ce1; 0.2–5 nM Ce4) in a complete medium for 90–120 min.
(§3) Microscopy was carried out using an SP2 confocal microscope with an HCX PL APO 63×/1.2 objective (Leica Microsystems GmbH, Wetzlar, Germany). The size of the confocal diaphragm corresponded to 1 Airy disk. Typical voxel size was 0.06 × 0.06 × 0.9 µm except for serial ligand binding experiments, where its size was 0.23 × 0.23 × 0.9 µm. […]
(§4) Quantitative analysis of the interaction of fluorescent ligands with Kv1.2 was carried out using Image J software (version 1.48, National Institute of Health, Bethesda, MD, USA) as described earlier. This analysis was based on calculating the ratio of the fluorescent intensities of the bound ligand to the channel (Ri) in each selected region of interest on the plasma membrane for the confocal images of 20–25 measured cells, followed by calculating the average value (Rav) and standard deviation. […]

[4] = molecular target: T3, human Kv1.2 channel, mKate2-Kv1.2(S371T, N469L) (K-Kv1.2m2) (Homo sapiens, UniProt P16389, N469L/S371T); assay: Binding of fluorescent ligand to K-Kv1.2m2 on living Neuro2a cells (confocal microscopy, Rav titration)
T3 construct: expressed in transfected cells; host or cells: mouse neuroblastoma Neuro2a cells, transient transfection with pmKate2-KCNA2m1m2
T3 sequence (P16389 whole entry S371T/N469L): as the sequence (P16389 whole entry S371T) above, with N469L counted along it
Procedure: as §2, §3, §4

[5] = molecular target: T4, human Kv1.2 channel (K-Kv1.2) (Homo sapiens, UniProt P16389, S371T); assay: Competitive displacement of HgTx-G from complexes with K-Kv1.2 on Neuro2a cells; format: binding; conditions: displacement of HgTx-G (0.5 nM), 90-120 min, Cheng-Prusoff, triplicate, mean ± SD, read-out: apparent dissociation constant (Kap), Kv1.2
T4 construct: expressed in transfected cells; host or cells: mouse neuroblastoma Neuro2a cells, transient transfection with pmKate2-KCNA2m1; tracer HgTx-G made in E. coli Rosetta-gami(DE3)pLysS
T4 sequence (P16389 whole entry S371T): as the sequence (P16389 whole entry S371T) above
Procedure: as §2
Quantitative analysis of the interaction of fluorescent ligands with Kv1.2 was carried out using Image J software (version 1.48, National Institute of Health, Bethesda, MD, USA) as described earlier. This analysis was based on calculating the ratio of the fluorescent intensities of the bound ligand to the channel (Ri) in each selected region of interest on the plasma membrane for the confocal images of 20–25 measured cells, followed by calculating the average value (Rav) and standard deviation.
The peptide concentration (DC50) displacing 50% of the fluorescent ligand from the complex with Kv1.2 was estimated by the dependence of Rav on the concentration (C) of the added peptide at the fixed concentration of the fluorescent ligand:Rav(C)/Rav0 = 1/(1 + C/DC50)(2) […]
The apparent dissociation constant (Kap) of the complex between Kv1.2 and the studied peptide was calculated using the Cheng–Prusoff equation:Kap = DC50/(1 + L/Kd)(3) […]

[6] = molecular target: Kv1.1 channel (K-Kv1.1); conditions: similar analytical system, read-out: Kap, Kv1.1; cited from earlier work
Text: Table 2 Sequences of Ce1, Ce4, HgTx1, and MgTx peptides and dissociation constants (Kap, nM) of their complexes with Kv1.2, Kv1.1, and Kv1.3 channels. | column: Kap, nM

[7] = system: Kv1.2 channels; conditions: mammalian cells with depolarized membranes; read-out: 50% inhibition of the Rb+ flux through Kv1.2; cited from earlier work
Text: (§5) Kap of MgTx in our experiments is consistent with the last value.

[8] = system: human Kv1.2 channels; conditions: patch-clamp, mammalian cells; read-out: 50% decrease of current, human Kv1.2; cited from earlier work
Text: as §5

CC[C@H](C)[C@@H]1NC(=O)CNC(=O)[C@H](Cc2ccccc2)NC(=O)[C@H](CCC(N)=O)NC(=O)[C@H](C)NC(=O)[C@H](CCCCN)NC(=O)[C@@H]2CSSC[C@@H](C(=O)N[C@@H](Cc3ccc(O)cc3)C(=O)N3CCC[C@H]3C(=O)N[C@@H](Cc3c[nH]cn3)C(=O)O)NC(=O)[C@H](CCCCN)NC(=O)[C@@H]3CSSC[C@H](NC(=O)[C@H](CCC(N)=O)NC(=O)[C@H](CCCCN)NC(=O)[C@@H]4CCCN4C(=O)[C@H](CO)NC(=O)[C@H]([C@@H](C)O)NC(=O)[C@@H](NC(=O)[C@H](CCCCN)NC(=O)[C@@H](NC(=O)[C@H](CC(=O)O)NC(=O)[C@@H](NC(=O)[C@@H](NC(=O)[C@@H](NC(=O)CCCN(C)C(=O)c4ccccc4-c4c5ccc(=N)c(S(=O)(=O)O)c-5oc5c(S(=O)(=O)O)c(N)ccc45)[C@@H](C)O)C(C)C)[C@@H](C)CC)C(C)C)CSSC[C@H](NC(=O)[C@H](CCCCN)NC(=O)[C@H](C)NC(=O)CNC(=O)[C@H](C)NC(=O)[C@H](CCCNC(=N)N)NC1=O)C(=O)N[C@@H](CCSC)C(=O)N[C@@H](CC(N)=O)C(=O)NCC(=O)N[C@@H](CCCCN)C(=O)N3)C(=O)N[C@@H](CC(C)C)C(=O)N1CCC[C@H]1C(=O)N1CCC[C@H]1C(=O)N2 [A-HgTx] (X1-[NMeGABA]TVIDVKCTSPKQCLPPCKAQFGIRAGAKCMNGKCKCYPH-OH; disulfide 8-30, 14-35, 18-37; C-terminus assumed)
Kd [1]: 0.3 ± 0.13 nM
Kd [2]: 0.7 ± 0.2 nM
binding saturation concentration, K-Kv1.2 [3]: ~ 0.5 nM
binding saturation concentration, K-Kv1.2m2 ([4]; concentration dependence of binding, Neuro2a cells): ~ 0.5 nM
Kd ([4]; living Neuro2a cells, complete medium, confocal microscopy, triplicate, mean ± SD, SD, read-out: dissociation constant (Kd) of the complex with K-Kv1.2m2): 0.08 ± 0.02 nM

CC[C@H](C)[C@@H]1NC(=O)[C@@H]2CSSC[C@@H]3NC(=O)[C@H](CCCCN)NC(=O)[C@H](CCCNC(=N)N)NC(=O)[C@H](CC(N)=O)NC(=O)[C@H](CCSC)NC(=O)[C@H](CSSC[C@H](NC(=O)[C@H](CO)NC(=O)[C@@H](NC(=O)[C@H](CC(N)=O)NC(=O)[C@@H](NC(=O)[C@@H]4CCCN4C(=O)[C@@H](NC(=O)CN)C(C)C)[C@@H](C)CC)C(C)C)C(=O)N[C@@H]([C@@H](C)O)C(=O)NCC(=O)N[C@@H](CO)C(=O)N4CCC[C@H]4C(=O)N[C@@H](CCC(N)=O)C(=O)N2)NC(=O)[C@H](CCCCN)NC(=O)CNC(=O)[C@H](Cc2ccccc2)NC(=O)[C@H](CCCNC(=N)N)NC(=O)[C@H](CCSC)NC(=O)CNC(=O)[C@H](C)NC(=O)[C@H](CC(=O)O)NC(=O)[C@H](CCCCN)NC(=O)[C@H](CSSC[C@@H](C(=O)N[C@H](C(=O)N2CCC[C@H]2C(=O)N[C@@H](CCCCN)C(=O)O)[C@@H](C)O)NC(=O)[C@H](Cc2c[nH]cn2)NC3=O)NC(=O)[C@@H]2CCCN2C(=O)[C@H](CCCCN)NC1=O [AgTx2]
Kd [5]: 21.5 ± 1.2 nM

CC[C@H](C)[C@H](NC(=O)[C@@H](N)[C@@H](C)O)C(=O)N[C@H](C(=O)N[C@@H](CC(N)=O)C(=O)N[C@H](C(=O)N[C@@H](CCCCN)C(=O)N[C@H]1CSSC[C@@H]2NC(=O)[C@H](CCCCN)NC(=O)[C@H](C)NC(=O)CNC(=O)[C@H](C)NC(=O)[C@H](CO)NC(=O)[C@H](CCC(N)=O)NC(=O)CNC(=O)[C@H](Cc3ccccc3)NC(=O)[C@H](CCC(N)=O)NC(=O)[C@H](C)NC(=O)[C@H](CCCCN)NC(=O)[C@@H]3CSSC[C@@H](C(=O)N[C@@H](Cc4ccc(O)cc4)C(=O)N4CCC[C@H]4C(=O)N[C@@H](Cc4c[nH]cn4)C(=O)O)NC(=O)[C@H](CCCCN)NC(=O)[C@H](CSSC[C@H](NC(=O)[C@H](CCC(N)=O)NC(=O)[C@H](CCCCN)NC(=O)[C@@H]4CCCN4C(=O)[C@H](CO)NC(=O)[C@H]([C@@H](C)O)NC1=O)C(=O)N[C@@H](CC(C)C)C(=O)N1CCC[C@H]1C(=O)N1CCC[C@H]1C(=O)N3)NC(=O)[C@H](CCCCN)NC(=O)CNC(=O)[C@H](CC(N)=O)NC(=O)[C@H](CCSC)NC2=O)C(C)C)[C@@H](C)CC [MgTx, margatoxin] (H-TIINVKCTSPKQCLPPCKAQFGQSAGAKCMNGKCKCYPH-OH; disulfide 7-29, 13-34, 17-36 (inferred); N-terminus and C-terminus assumed)
Kd [6]: 0.3 ± 0.2 nM
IC50 [7]: 0.675 nM
IC50 [8]: 0.006 nM
